Values quoted from earlier work, collected in US10941351B2, “Layer-separation method of spent caustic solution” (SK Innovation Co., Ltd., priority 2016, dated 2021).

Settings: at 25° C.

Question: Which Water solubility does the source give for `CCCCCCCCO` [n-Octanol, n-octanol] here?
Answer: 0.46 g/L
